{
  "source": "patent US7300923B2",
  "about": "“Partial and full agonists of A1 adenosine receptors” (CV Therapeutics, Inc., priority 2004, dated 2007)",
  "origin": "cited, not measured here",
  "key": {"[1]": {"target": "T1, A1-adenosine receptor (Homo sapiens, UniProt P30542)", "T1 sequence (P30542 1-326)": "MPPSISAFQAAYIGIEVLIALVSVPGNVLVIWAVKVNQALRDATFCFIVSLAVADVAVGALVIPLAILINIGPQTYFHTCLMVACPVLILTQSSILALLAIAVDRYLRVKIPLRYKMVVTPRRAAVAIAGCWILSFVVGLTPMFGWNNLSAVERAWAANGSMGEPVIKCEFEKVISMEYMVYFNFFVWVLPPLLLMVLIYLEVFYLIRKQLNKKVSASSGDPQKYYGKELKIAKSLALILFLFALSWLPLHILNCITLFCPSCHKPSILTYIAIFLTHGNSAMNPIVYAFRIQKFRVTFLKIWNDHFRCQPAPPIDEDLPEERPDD"}, "[2]": {"test_system": "seizures induced by DMCM", "details": "seizures induced by the inverse benzodiazepine agonist DMCM"}},
  "data": [
    {"molecule": "OC1CCCC1Nc1ncnc2c1ncn2[C@@H]1O[C@H](CSc2ccccc2F)[C@@H](O)[C@H]1O", "note": "(mixture of isomers) [(4S,5S,2R,3R)-5-[(2-fluorophenylthio)methyl]-2-{6-[(2-hydroxy-cyclopentyl)amino]-purin-9-yl}oxolane-3,4-diol]", "values": [
      {"measurement": "A1-adenosine receptor agonist profile", "setting": "[1]", "value": "highly selective partial A1-adenosine receptor agonist"}
    ]},
    {"molecule": "Nc1ncnc2c1ncn2[C@@H]1O[C@H](CO)[C@@H](O)[C@H]1O", "note": "[adenosine, Adenosine]", "values": [
      {"measurement": "half-life", "value": "less than 10 sec"}
    ]},
    {"molecule": "Cc1ccccc1CNc1ncnc2c1ncn2[C@@H]1O[C@H](CO)[C@@H](O)[C@H]1O", "note": "[metrifudil]", "values": [
      {"measurement": "anticonvulsant activity", "setting": "[2]", "value": "potent anticonvulsant"}
    ]}
  ]
}
